PubChem BioAssay (NCI)
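Protocol summary: plate cells (96-well), add compound at 5 concentrations, incubate 48 h, interpolate endpoints linearly. GI50 = concentration required for 50% inhibition of growth. TGI is the concentration that stops growth completely.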 Where a SMILES comes first, the peptide text is derived from it. [ ]: non-standard residue; d: D form. NMeY = CN[C@@H](Cc1ccc(O)cc1)C(=O)O; dNMeF = CN[C@H](Cc1ccccc1)C(=O)O; Sar = CNCC(=O)O

Experiments:
Assay in all cases: growth of human tumour cells (NCI), 48 h
[1] = system: HCT-15 colon
[2] = system: RPMI-8226 leukemia
[3] = system: CCRF-CEM leukemia
[4] = system: SK-MEL-2 melanoma
[5] = system: SK-MEL-5 melanoma
[6] = system: OVCAR-5 ovarian
[7] = system: UACC-62 melanoma
[8] = system: HOP-62 NSCLC
[9] = system: COLO 205 colon
[10] = system: NCI-H522 lung
[11] = system: NCI-H460 lung
[12] = system: HCC-2998 colon
[13] = system: LOX IMVI melanoma
[14] = system: A498 renal
[15] = system: MDA-MB-435
[16] = system: 786-0 renal
[17] = system: CAKI-1 renal
[18] = system: HS 578T breast
[19] = system: BT-549 breast
[20] = system: MCF7 breast
[21] = system: UACC-257 melanoma
[22] = system: NCI-H226 lung
[23] = system: RXF 393 renal
[24] = system: SK-OV-3 ovarian
[25] = system: OVCAR-3 ovarian
[26] = system: A549 NSCLC
[27] = system: SK-MEL-28 melanoma
[28] = system: HL-60(TB) leukemia
[29] = system: SF-539 CNS
[30] = system: SNB-75 CNS
[31] = system: HOP-92 NSCLC
[32] = system: OVCAR-4 ovarian
[33] = system: NCI/ADR-RES ovarian
[34] = system: DU-145 prostate
[35] = system: MDA-MB-231 breast
[36] = system: IGROV1 ovarian
[37] = system: SNB-19 CNS
[38] = system: U251 CNS
[39] = system: PC-3 prostate
[40] = system: ACHN renal
[41] = system: T-47D breast
[42] = system: SF-295 CNS
[43] = system: HT29 colon
[44] = system: SN12C renal
[45] = system: MOLT-4 leukemia
[46] = system: SR leukemia
[47] = system: MALME-3M melanoma
[48] = system: NCI-H23 lung
[49] = system: M14 melanoma
[50] = system: SW-620 colon
[51] = system: TK-10 renal
[52] = system: K-562 leukemia
[53] = system: KM12 colon
[54] = system: SF-268 CNS
[55] = system: HCT-116 colon
[56] = system: EKVX NSCLC
[57] = system: UO-31 renal
[58] = system: OVCAR-8 ovarian

SMILES: Cc1cc2c3ccccc3ccc2[n+]2ccccc12
- GI50 [1]: 37.9 µM
- TGI [1]: > 100 µM
- GI50 [2]: 8.7 µM
- TGI [2]: 80.3 µM
- GI50 [3]: 4.72 µM
- TGI [3]: 35.2 µM
- GI50 [4]: 6.26 µM
- TGI [4]: 22.7 µM
- GI50 [5]: 1.63 µM
- TGI [5]: 3.78 µM
- GI50 [6]: 30.3 µM
- TGI [6]: > 100 µM
- GI50 [7]: 6 µM
- TGI [7]: 20.4 µM
- GI50 [8]: 2.58 µM
- TGI [8]: 11.7 µM
- GI50 [9]: 1.95 µM
- TGI [9]: 8.31 µM
- GI50 [10]: 2.6 µM
- TGI [10]: 13.1 µM
- GI50 [11]: 8.81 µM
- TGI [11]: 28.1 µM
- GI50 [12]: 4.71 µM
- TGI [12]: 19.7 µM
- GI50 [13]: 21.5 µM
- TGI [13]: 91.6 µM
- GI50 [14]: 5.43 µM
- TGI [14]: > 100 µM
- GI50 [15]: 8.56 µM
- TGI [15]: 26.6 µM
- GI50 [16]: 6.11 µM
- TGI [16]: > 69.1 µM
- GI50 [17]: > 28 µM
- TGI [17]: > 100 µM
- GI50 [18]: 2.6 µM
- TGI [18]: 17.2 µM
- GI50 [19]: 1.4 µM
- TGI [19]: 7.77 µM
- GI50 [20]: 2.35 µM
- TGI [20]: > 38.8 µM
- GI50 [21]: 6.17 µM
- TGI [21]: 27.5 µM
- GI50 [22]: 3.14 µM
- TGI [22]: 23.7 µM
- GI50 [23]: 14.3 µM
- TGI [23]: > 84.4 µM
- GI50 [24]: 10.7 µM
- TGI [24]: 73.3 µM
- GI50 [25]: 2.28 µM
- TGI [25]: 11.8 µM
- GI50 [26]: 0.628 µM
- TGI [26]: > 76.9 µM
- GI50 [27]: 3.07 µM
- TGI [27]: 12.7 µM
- GI50 [28]: 14.3 µM
- TGI [28]: 46.3 µM
- GI50 [29]: 3.47 µM
- TGI [29]: 17 µM
- GI50 [30]: 4.66 µM
- TGI [30]: > 33.7 µM
- GI50 [31]: 2.69 µM
- TGI [31]: 27.4 µM
- GI50 [32]: 2.88 µM
- TGI [32]: 14.8 µM
- GI50 [33]: > 100 µM
- TGI [33]: > 100 µM
- GI50 [34]: 9.02 µM
- TGI [34]: 40.4 µM
- GI50 [35]: 18.5 µM
- TGI [35]: > 100 µM
- GI50 [36]: 10 µM
- TGI [36]: > 86.2 µM
- GI50 [37]: 2.11 µM
- TGI [37]: 8.72 µM
- GI50 [38]: 1.06 µM
- TGI [38]: 10.1 µM
- GI50 [39]: 3.38 µM
- TGI [39]: 32.1 µM
- GI50 [40]: 29.4 µM
- TGI [40]: > 100 µM
- GI50 [41]: 1.86 µM
- TGI [41]: 6.8 µM
- GI50 [42]: 2.29 µM
- TGI [42]: 12.7 µM
- GI50 [43]: 9.19 µM
- TGI [43]: 41.1 µM
- GI50 [44]: 1.4 µM
- TGI [44]: 7.29 µM
- GI50 [45]: 4.64 µM
- TGI [45]: 28.2 µM
- GI50 [46]: 2.25 µM
- TGI [46]: 12.9 µM
- GI50 [47]: 0.657 µM
- TGI [47]: 3.45 µM
- GI50 [48]: 2.57 µM
- TGI [48]: 19.3 µM
- GI50 [49]: 6.53 µM
- TGI [49]: 22.8 µM
- GI50 [50]: 2.99 µM
- TGI [50]: 32.8 µM
- GI50 [51]: 19.7 µM
- TGI [51]: > 86.8 µM
- GI50 [52]: 4.32 µM
- TGI [52]: 32.8 µM
- GI50 [53]: 1.43 µM
- TGI [53]: 11.6 µM
- GI50 [54]: 0.839 µM
- TGI [54]: 3.92 µM
- GI50 [55]: 7.29 µM
- TGI [55]: 44.4 µM
- GI50 [56]: 1.22 µM
- TGI [56]: > 33.4 µM
- GI50 [57]: 3.73 µM
- TGI [57]: > 100 µM
- GI50 [58]: 2.43 µM
- TGI [58]: 21.9 µM

SMILES: CC[C@H](C)[C@@H]1NC(=O)[C@H](Cc2ccc(O)cc2)N(C)C(=O)[C@H](Cc2ccccc2)NC(=O)CN(C)C(=O)[C@@H]2CCCN2C(=O)[C@@H](Cc2ccccc2)N(C)C(=O)[C@H](CC(C)C)NC1=O (cyclo(F[NMeY]IL[dNMeF]P[Sar]))
- GI50 [1]: 4.1 µM
- TGI [1]: 19.8 µM
- GI50 [2]: 0.229 µM
- TGI [2]: 1.2 µM
- GI50 [3]: 0.279 µM
- TGI [3]: 11.7 µM
- GI50 [4]: 0.327 µM
- TGI [4]: 1.91 µM
- GI50 [5]: 0.485 µM
- TGI [5]: 1.85 µM
- GI50 [6]: 0.299 µM
- TGI [6]: 8.09 µM
- GI50 [7]: 0.367 µM
- TGI [7]: 2.75 µM
- GI50 [8]: 0.296 µM
- TGI [8]: 5.84 µM
- GI50 [9]: 0.185 µM
- TGI [9]: 3.3 µM
- GI50 [10]: 0.287 µM
- TGI [10]: 3.95 µM
- GI50 [11]: 0.184 µM
- TGI [11]: 1.94 µM
- GI50 [12]: 0.39 µM
- TGI [12]: 5.01 µM
- GI50 [13]: 0.197 µM
- TGI [13]: 1.89 µM
- GI50 [14]: 0.695 µM
- TGI [14]: 6.11 µM
- GI50 [15]: 0.205 µM
- TGI [15]: 1.7 µM
- GI50 [16]: 0.467 µM
- TGI [16]: 5.75 µM
- GI50 [17]: 0.805 µM
- TGI [17]: 11.3 µM
- GI50 [18]: 0.137 µM
- TGI [18]: 1.25 µM
- GI50 [19]: 0.407 µM
- TGI [19]: 4.51 µM
- GI50 [20]: 0.103 µM
- TGI [20]: 2.69 µM
- GI50 [21]: 0.267 µM
- TGI [21]: 3.05 µM
- GI50 [22]: 0.768 µM
- TGI [22]: 8.18 µM
- GI50 [23]: 0.519 µM
- TGI [23]: 3.27 µM
- GI50 [24]: 0.446 µM
- TGI [24]: 7.73 µM
- GI50 [25]: 0.248 µM
- TGI [25]: 3.39 µM
- GI50 [26]: 0.301 µM
- TGI [26]: 4.29 µM
- GI50 [27]: 0.194 µM
- TGI [27]: 1.46 µM
- GI50 [28]: 0.605 µM
- TGI [28]: 3.3 µM
- GI50 [29]: 0.287 µM
- TGI [29]: 2.61 µM
- GI50 [30]: 0.206 µM
- TGI [30]: 2.78 µM
- GI50 [31]: 0.198 µM
- TGI [31]: 4.83 µM
- GI50 [32]: 0.306 µM
- TGI [32]: 3.99 µM
- GI50 [33]: 14 µM
- TGI [33]: > 100 µM
- GI50 [34]: 0.205 µM
- TGI [34]: 10.9 µM
- GI50 [35]: 0.331 µM
- TGI [35]: 4.28 µM
- GI50 [36]: 0.21 µM
- TGI [36]: 5.2 µM
- GI50 [37]: 0.146 µM
- TGI [37]: 6.92 µM
- GI50 [38]: 0.146 µM
- TGI [38]: 7.26 µM
- GI50 [39]: 0.28 µM
- TGI [39]: 6.21 µM
- GI50 [40]: 2.34 µM
- TGI [40]: 11.6 µM
- GI50 [41]: 0.157 µM
- TGI [41]: 6.21 µM
- GI50 [42]: 0.428 µM
- TGI [42]: 3.5 µM
- GI50 [43]: 0.243 µM
- TGI [43]: 7.2 µM
- GI50 [44]: 0.139 µM
- TGI [44]: 5.79 µM
- GI50 [45]: 0.314 µM
- TGI [45]: 10.6 µM
- GI50 [46]: 0.123 µM
- TGI [46]: 6.28 µM
- GI50 [47]: 0.164 µM
- TGI [47]: 1.81 µM
- GI50 [48]: 0.197 µM
- TGI [48]: 5.95 µM
- GI50 [49]: 0.371 µM
- TGI [49]: 2.58 µM
- GI50 [50]: 0.199 µM
- TGI [50]: 5.32 µM
- GI50 [51]: 1.22 µM
- TGI [51]: 9.65 µM
- GI50 [52]: 0.262 µM
- TGI [52]: 31.4 µM
- GI50 [53]: 0.271 µM
- TGI [53]: 5.48 µM
- GI50 [54]: 0.217 µM
- TGI [54]: 6.94 µM
- GI50 [55]: 0.155 µM
- TGI [55]: 10.5 µM
- GI50 [56]: 0.301 µM
- TGI [56]: 6.47 µM
- GI50 [57]: 2.63 µM
- TGI [57]: 13.1 µM
- GI50 [58]: 0.352 µM
- TGI [58]: 12.8 µM
